Experiments:
Type in all cases: in vivo
[1] = tested on: retinal neovascularization in C57BL/6 mice; test: Oxygen-induced retinopathy, area of retinal neovascularization; settings: hyperbaric oxygen
Protocol: C57BL/6 mice placed in 75% O2 at postnatal day (P) 7 and at P12 were returned to room air and treatment initiated with compound or vehicle. At P17, the area of retinal NV on the surface of the retina was measured as described previously (Shen et al., 2007). Briefly, P17 mice were given an intraocular injection of 1 μl of rat anti-mouse platelet endothelial cell adhesion molecule-1 (PECAM-1) antibody (Pharmingen, San Jose, Calif., USA); after 12 h, they were euthanized, and eyes were fixed in PBS-buffered formalin for 5 h at room temperature. Retinas were dissected, washed, and incubated with goat-anti rat polyclonal antibody conjugated with Alexa 488 (Invitrogen, Carlsbad, Calif., USA) at 1:500 dilution at room temperature for 45 min and flat mounted. An observer masked with respect to treatment group measured the area of NV per retina by image analysis.
(see, FIGS. 12 and 13). In systemic experiments both eyes were examined and no significant differences were observed between CCR3 inhibitor '994 and vehicle treated groups. In topical experiments no significant differences were noted between CCR3 inhibitor '994 and vehicle groups nor treated and fellow eye in the CCR3 inhibitor '994 treated group. […] Consequently SU4312 acts similarly on retinal neovascularization to that of an alternative receptor tyrosine kinase inhibitor pazopanib which was effective in limiting choroidal neovascularization.

[2] = molecular target: T1, CCR3 (Mus musculus, UniProt P51678); test: Fractional CCR3 receptor occupancy calculated from blood concentrations in juvenile mice
T1 construct: endogenous in cells; host or cells: juvenile mice in vivo; CCR3-bearing cells, mainly eosinophils
T1 sequence (P51678 1-359): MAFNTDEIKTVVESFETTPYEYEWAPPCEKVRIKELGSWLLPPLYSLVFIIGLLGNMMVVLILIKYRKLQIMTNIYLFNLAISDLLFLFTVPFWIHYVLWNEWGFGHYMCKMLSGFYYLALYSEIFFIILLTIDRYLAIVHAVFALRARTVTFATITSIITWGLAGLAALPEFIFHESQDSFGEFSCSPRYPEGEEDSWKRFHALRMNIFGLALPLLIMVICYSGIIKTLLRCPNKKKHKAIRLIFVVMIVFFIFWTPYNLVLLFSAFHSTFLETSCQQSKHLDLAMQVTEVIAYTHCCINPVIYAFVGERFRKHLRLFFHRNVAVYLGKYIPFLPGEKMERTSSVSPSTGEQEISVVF
Protocol: Following dosing of 8 mg/kg i.p QD CCR3 inhibitor '994 in juvenile mice to mimic exposure effects in JR5558 mice, blood concentration at 24 hrs was calculated for 2 mg/kg i.p, 8 mg.kg i.p and 30 mg/kg i.p. doses by projecting the log linear phase of the PK profile. Blood drug concentrations were then used to determine fractional receptor occupancy using the Langmuir binding isotherm and the pKi for CCR3 inhibitor '994 (estimated in a mouse eosinophil chemotaxis assay). The receptor occupancy values are small over estimates of the true value as the pKi for CCR3 inhibitor '994 was determined in buffer and not blood. The fractional CCR3 receptor occupancy will largely be due to binding to eosinophils as this is the predominant CCR3 bearing cell population. […] This same group also used very small doses of anti-CCR3 antibodies dosed by intravitreal injection to limit laser-induced CNV in mouse models and these very small doses would have very limited impact of fractional receptor occupancy even if they were able to access the systemic circulation. In addition, topical dosing of CCR3 inhibitor '994 as an eye drop formulation was also efficacious in the JR5558 model. […] It is highly likely however that systemic dosing drives exposure of CCR3 antagonist in the eye and ultimately the effect on disease and the exposure in the eye is likely to be a complex function of the systemic exposure and thus an understanding of the systemic pharmacokinetics driving efficacy may be important in profiling systemic therapies.

[3] = tested on: spontaneous CNV in JR5558 mice; test: JR5558 spontaneous CNV model, quantitative immunohistochemistry (isolectin B4 whole-mount); settings: 8 mg/kg BID v Vehicle, 12 days P14-P26
Protocol: JR5558 mice develop CNV (on an atrophic background) spontaneously with CNV lesions first emerging approximately 12 days after birth. JR5558 mice were intraperitoneally treated with various amounts of a rat anti-mouse VEGF receptor (VEGFR)-2 blocking antibody (MAB4431; R&D systems) or a purified rat non-immune isotype match control IgG2α antibody (R&D systems) starting from P14 for a total of 10 doses in 11 days and CNV development was analyzed by fluorescein angiography (FA) 24 hours after the last dose on P25. For Mice treated with CCR3 inhibitor '994 they were dosed intraperitoneally or by eye drop with various concentrations of the drug starting at P14 for a total of 12 days and CNV development was analyzed by FA 24 hours after the last dose on P26. To study the combination effects of anti-VEGFR2 antibody and CCR3 inhibitor '994, mice were treated intraperitoneally with each material alone or in combination starting from P14 for a total of 10 doses in 11 days and CNV development was analyzed by FA 24 hours after the last dose on P25. […]
When CCR3 inhibitor '994 was dosed BID instead of QD, CCR3 inhibitor '994 also produced a significant effect in limiting both total lesion (see, FIG. 4, Table 5) area and total CNV number (see, FIG. 4, Table 6). […] Eyes were completely washed and then analysed by quantitative immunohistochemistry.

fractional CCR3 receptor occupancy ([2]; 2 mg/kg i.p., 24 h trough): 3.1% | fractional CCR3 receptor occupancy ([2]; 2 mg/kg i.p., at 8 hours): 97.95% | fractional CCR3 receptor occupancy ([2]; 8 mg/kg i.p., 24 h trough): 11.36% | fractional CCR3 receptor occupancy ([2]; 8 mg/kg i.p., at 8 hours): 99.48% | fractional CCR3 receptor occupancy ([2]; 30 mg/kg i.p., 24 h trough): 32.45 | fractional CCR3 receptor occupancy ([2]; 30 mg/kg i.p., at 8 hours): 99.86%
Compound: NC(=O)c1ccc(CNC(=O)NC[C@H]2CN(Cc3ccc(Cl)c(Cl)c3)CCO2)cc1 [CCR3 inhibitor '994, 4-[[[[[[(2s)-4-[(3,4-dichlorophenyl)methyl]-2-morpholinyl]methyl]-amino]carbonyl]-amino]methyl]benzamide]
effect on neovascularization of retinal vessels ([1]; systemic 8 mg/kg BID i.p.): did not have an effect | effect on neovascularization of retinal vessels ([1]; topically 5 ul 10 mg/ml BID): did not have an effect | Difference in mean number of CNV lesions per eye [3]: −8.00 | Difference in mean total CNV area per eye [3]: −76632

— patent publication US20140335083A1, “METHODS OF TREATMENT AND PREVENTION OF EYE DISEASES” (GLAXO GROUP LIMITED, priority 2011, published 2014)
